Results published in patent US9295190B2, “Seed treatment composition” (DSM IP ASSETS B.V., priority 2011, dated 2016).

How the values were obtained:
[1] = test system: Watermelon (Citrullus lanatus) seeds; assay: Germination of coated watermelon seeds in cocopeat; assay type: in vivo
Source text: Watermelon (Citrullus lanatus) seeds were untreated or coated with a composition comprising 1.5 gram polyvinylpyrrolidone and 9 gram natamycin product (i.e. Delvocid®, a product comprising 50% (w/w) natamycin) per kg of seed. This composition was applied as described in Example 10.
(§1) Subsequently, the seeds were germinated in trays of sterile, buffered (i.e. with calcium nitrate to pH of 6.7) cocopeat, which is a stable growth medium commonly used and accepted for e.g. simulation of seed germination in the horticultural industry. The 50 seeds planted per treatment were subjected to an ambient temperature of minimally 1.4° C. during night time and maximally 26.9° C. during day time (average temperature 13.6° C.) for 19 days and continuously irrigated to field capacity. The average relative humidity during the trial was 72%. During the trial, the trays with cocopeat were irrigated 3 to 5 times per day. The trays were perforated at the bottom leading to direct removal of excess water. This way, the cocopeat could be kept at field capacity. After 15, 17 and 19 days, the germination percentage was determined according to ISTA standards (see Handbook International Rules for Seed Testing, Edition 2011, Chapter 5, pages 5-32, published by the International Seed Testing Association, Switzerland).

[2] = test system: Tomato (Solanum lycopersicum) seeds; assay: Germination of drum primed, encrusted tomato seeds; assay type: in vivo; conditions: after both 10 and 19 days of incubation
Experimental: as §1
Tomato (Solanum lycopersicum) seeds were primed (i.e. brought to same germination level) using drum priming. Subsequently, the primed tomato seeds were either not treated further or encrusted with composition 6 of Table 1 according to the method as described in Example 1. […] After 10 and 19 days, the germination percentage was determined using the ISTA method described in Example 11.

C[C@@H]1C/C=C/C=C/C=C/C=C/[C@H](O[C@@H]2O[C@H](C)[C@@H](O)[C@H](N)[C@@H]2O)C[C@@H]2O[C@](O)(C[C@@H](O)C[C@H]3O[C@@H]3/C=C/C(=O)O1)C[C@H](O)[C@H]2C(=O)O [natamycin]
Germination percentage in excess of the untreated seeds ([1]; after 15 days of incubation): 18% | Germination percentage in excess of the untreated seeds ([1]; after 17 days of incubation): 34% | Germination percentage in excess of the untreated seeds ([1]; after 19 days of incubation): 38% | Germination percentage in excess of the control seeds [2]: 10%
